Laboratory results from US5252478A, “Thermostable mutants of neutral protease and means for their preparation” (Eniricerche S.p.A., priority 1990, dated 1993).
Residues, ends and D or L forms follow the SMILES beside them. *: point of attachment. Cbz = O=C(OCc1ccccc1)*

Legend:
Assay in all cases: Kinetic parameters on synthetic peptide substrates (HPLC of hydrolysis products)
Assay type in all cases: biochemical
[1] = target: T1, B.subtilis neutral protease, wild type (PN w.t.) (Bacillus subtilis, UniProt P68736); parameters: unit not given beside the values; conditions: 37° C., 25 mM Tris-HCl, pH 7.0, 2.5 mM calcium acetate
T1 construct: made in house; host or cells: B. subtilis SMS 108 carrying pSM 127 (NRRL B-15900)
T1 sequence (P68736 222-521): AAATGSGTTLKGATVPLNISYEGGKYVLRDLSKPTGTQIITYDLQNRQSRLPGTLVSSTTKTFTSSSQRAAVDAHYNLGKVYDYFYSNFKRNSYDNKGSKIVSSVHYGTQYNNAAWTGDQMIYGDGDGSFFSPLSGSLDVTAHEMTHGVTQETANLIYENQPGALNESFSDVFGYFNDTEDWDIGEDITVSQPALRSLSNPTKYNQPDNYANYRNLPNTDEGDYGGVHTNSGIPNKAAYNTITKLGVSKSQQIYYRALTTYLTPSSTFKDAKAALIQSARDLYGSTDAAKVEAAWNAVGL
Protocol: (§1) The kinetic parameters Km and Kcat of wild-type neutral protease and of the three mutants were determined on Z-Phe-Leu-Ala, Z-Ala-Leu-Ala, Z-Gly-Leu-Ala and Z-Val-Leu-Ala synthetic peptide substrates (Bachem, Bubendorf, CH).
(§2) The hydrolysis reactions were carried out at 37° C. in 0.6 ml of a solution containing 25 mM Tris-HCl, pH 7.0, and 2.5 mM calcium acetate, with the use of different concentrations of the substrate (from 0.2 to 20.0 mM) and of the enzyme (from 0.04 to 5 ug/ml).
(§3) 100 μl portions were withdrawn from the reaction mixtures at various time intervals, and 100 μl of a solution of H2 O:CH3 CN:H3 PO4 in a volumetric ratio of 64:34:1 were added and the mixture centrifuged at 14,000 rpm for 5 minutes.
(§4) 20 μl of the supernatant liquid thus obtained were then loaded into a VYDAC® 218 TP S415 HPLC column (4.6×150 mm, 10 μm particles) and the hydrolysis products (Z-Phe, Z-Ala, Z-Val and Z-Gly) were separated by isocratic elution at a flow rate of 1.5 ml/minute with the use of solutions A (0.05% H3 PO4, v/v) and B (H2 O:CH3 CN:H3 PO4, 4.95:95.0:0.05 v/v) in ratios which varied according to the substrate used.
(§5) The reaction products were measured as their absorbance at 220 nm and quantised by the integration of the elution peaks with the use of the System Gold program (Beckman).
(§6) Initial velocities (vi) and maximum velocities (Vmax) Km and Kcat were then found for each of the substrates with the use of the Michaelis-Manten equation [formula]

[2] = target: T2, B.subtilis neutral protease double mutant 147/189 (Gly 147 → Ala, Gly 189 → Ala) (Bacillus subtilis, UniProt P68736, G369A/G406A); conditions: 147/189 mutant; 37° C., 25 mM Tris-HCl, pH 7.0, 2.5 mM calcium acetate
T2 construct: made in house; host or cells: B. subtilis SMS 108 carrying pSM 376 (B. subtilis SMS 262)
T2 sequence (P68736 222-521 G369A/G406A): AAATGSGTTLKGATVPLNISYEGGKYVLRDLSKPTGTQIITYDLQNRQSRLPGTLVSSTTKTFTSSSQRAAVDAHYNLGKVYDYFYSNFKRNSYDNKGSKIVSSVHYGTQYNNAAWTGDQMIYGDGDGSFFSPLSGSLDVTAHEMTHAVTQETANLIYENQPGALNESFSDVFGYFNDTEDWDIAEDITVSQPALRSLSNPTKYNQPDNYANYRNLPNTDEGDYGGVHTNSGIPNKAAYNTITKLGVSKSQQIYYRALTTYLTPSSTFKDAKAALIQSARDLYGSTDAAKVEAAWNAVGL
Protocol: as §1, §2, §3, §4, §5, §6

[3] = target: T3, B.subtilis neutral protease mutant 147 (Gly 147 → Ala) (Bacillus subtilis, UniProt P68736, G369A); conditions: 147 mutant; 37° C., 25 mM Tris-HCl, pH 7.0, 2.5 mM calcium acetate
T3 construct: made in house; host or cells: B. subtilis SMS 108 carrying pSM 374 (B. subtilis SMS 263)
T3 sequence (P68736 222-521 G369A): as the sequence (P68736 222-521 G369A/G406A) above, with A185G counted along it
Protocol: as §1, §2, §3, §4, §5, §6

[4] = target: T4, B.subtilis neutral protease mutant 189 (Gly 189 → Ala) (Bacillus subtilis, UniProt P68736, G406A); conditions: 189 mutant; 37° C., 25 mM Tris-HCl, pH 7.0, 2.5 mM calcium acetate
T4 construct: made in house; host or cells: B. subtilis SMS 108 carrying pSM 375 (printed pSM 75; B. subtilis SMS 261)
T4 sequence (P68736 222-521 G406A): as the sequence (P68736 222-521 G369A/G406A) above, with A148G counted along it
Protocol: as §1, §2, §3, §4, §5, §6

Row | Compound | Kcat [1] | Kcat [2] | Km [2] [mM] | Kcat [3] | Kcat [4] | Km [4] [mM] | Km [3] [mM]
1 | CC(C)C[C@H](NC(=O)[C@H](C)NC(=O)OCc1ccccc1)C(=O)N[C@@H](C)C(=O)O [Z--Ala--Leu--Ala, Z-Ala-Leu-Ala] (Cbz-Ala-Leu-Ala-OH) | 3005 | 1329 | 8.72 | ~3500 | 2694 | 1.53 | 
2 | CC(C)C[C@H](NC(=O)CNC(=O)OCc1ccccc1)C(=O)N[C@@H](C)C(=O)O [Z--Gly--Leu--Ala, Z-Gly-Leu-Ala] (Cbz-Gly-Leu-Ala-OH) | 1150 | 186.4 | 4.39 | 105.8 | 1847 | 2.38 | 35.3
3 | CC(C)C[C@H](NC(=O)[C@H](Cc1ccccc1)NC(=O)OCc1ccccc1)C(=O)N[C@@H](C)C(=O)O [Z--Phe--Leu--Ala, Z-Phe-Leu-Ala] (Cbz-Phe-Leu-Ala-OH) | 1986 | 1038 | 0.95 | 1933 | 2139 | 2.53 | 9.36
4 | CC(C)C[C@H](NC(=O)[C@@H](NC(=O)OCc1ccccc1)C(C)C)C(=O)N[C@@H](C)C(=O)O [Z--Val--Leu--Ala, Z-Val-Leu-Ala] (Cbz-Val-Leu-Ala-OH) | 6.12 | 7.61 | 6.97 | 3.76 | 13.12 | 0.96 | 24
